# Test results from US20240124454A1, “TRICYCLIC COMPOUND AND USE THEREOF” (NANJING ZAIMING PHARMACEUTICAL CO., LTD., priority 2020, published 2024).
# Target: hERG potassium channel (Homo sapiens (Human), UniProt Q12809)
# Assay: hERG inhibitory activity, manual patch-clamp in HEK293 cells
# Type: cell-based
# Details: HEK293 stably expressing hERG
# Method: Test Example 8. Assay for hERG Inhibitory Activity of Compound of Present Application
# The inhibition of hERG activity by the compounds of the present application was determined using the following method.
# I. Experimental materials and instruments • 1. Dialyzed fetal bovine serum Shanghai Bohan Biotechnology Co., Ltd (BS-0005-500) • 2. DMEM culture medium Thermo Fisher Scientific (China) Co., Ltd. (10569) • 3. HEPES Thermo Fisher Scientific (China) Co., Ltd. (15630080) • 4. Trypsin Thermo Fisher Scientific (China) Co., Ltd. (2192509) • 5. Penicillin-streptomycin solution Thermo Fisher Scientific (China) Co., Ltd. (15140-122) • 6. MEM non-essential amino acid solution Thermo Fisher Scientific (China) Co., Ltd. (11140) • 7. Geneticin (G418) Thermo Fisher Scientific (China) Co., Ltd. (11811031) • 8. Blasticidin Thermo Fisher Scientific (China) Co., Ltd. (R21001) • 9. PolylysineThermo Fisher Scientific (China) Co., Ltd. (P4832) • 10. Dofetilide Beijing Express Technology Co., Ltd. (D525700) • 11. Doxycycline Sigma-Aldrich (Shanghai) Trading Co., Ltd. (D9891) • 12. Carbon dioxide incubator Thermo Fisher Scientific (China) Co., Ltd. (371) • 13. Puller Sutter Company, U.S. (P-97) • 14. Micromanipulator Siskiyou Company, U.S. (MC1000e) • 15. Micromanipulator Sutter Company, U.S. (ROE-200; MP285) • 16. Amplifier HEKA Company, Germany (EPC10) • 17. Microscope Olympus (China) Co., Ltd. (IX51/71/73) • 18. Perfusion system ALA Company, U.S. (VM8 gravity administration system)
# II. Culture of cell lines and cells
# HEK293 cells (Cat. No: K1236) stably expressing hERG ion channel were purchased from Invitrogen. The cells were cultured in a culture medium containing 85% DMEM, 10% dialyzed fetal bovine serum, 0.1 mM non-essential amino acid solution, 100 U/mL penicillin-streptomycin solution, 25 mM HEPES, 5 μg/mL blasticidin, and 400 μg/mL geneticin. When the cell density increased to 40-80% of the bottom area of the culture dish, the cells were digested with trypsin and subcultured thrice every week. Before the experiment, the cells were cultured at a density of 5×10^5 in 6-cm culture dishes, induced for 48 h with 1 μg/mL doxycycline, and then digested and inoculated on a slide for the subsequent manual patch-clamp experiment.
# III. Preparation of solutions
# 1) Extracellular fluid: 132 mM sodium chloride, 4 mM potassium chloride, 3 mM calcium chloride, 0.5 mM magnesium chloride, 11.1 mM glucose, and 10 mM HEPES (adjusted to pH 7.35 with sodium hydroxide).
# 2) Intracellular fluid: 140 mM potassium chloride, 2 mM magnesium chloride, 10 mM EGTA, 5 mM ATP-magnesium salt, and 10 mM HEPES (adjusted to pH 7.35 with potassium hydroxide).
# Note: the osmotic pressure of the solutions was controlled at 280-300 mOsmol/kg. The solutions were filtered and stored at 4° C. before use. The ATP-magnesium salt was prepared into a 100 mM stock solution, subpackaged, and stored in a −20° C. refrigerator. On the day of the experiment, a certain amount of the stock solution was added into the intracellular fluid right before use.
# 1) The slides carrying HEK293 cells in the culture dish were placed in the perfusion chamber of the micromanipulation stage.
# 2) Appropriate cells were placed in the center of the field of view under an Olympus IX51, IX71, or IX73 inverted microscope. The tip of the glass electrode was found using a 10× objective lens and placed in the center of the field of view. The electrode was then moved down using a micromanipulator while the electrode was slowly brought into proximity to the cell using the coarse adjustment.
# 3) When the electrode was in close proximity to the cell, the lens was switched to a 40× objective lens for observation. The micromanipulator was used for fine adjustment to make the electrode approach the surface of the cell gradually.
# 4) Negative pressure was applied to form a seal with a resistance higher than 1 GΩ between the electrode tip and the cell membrane. […]
# hERG potassium channel, sequence (Q12809 whole entry): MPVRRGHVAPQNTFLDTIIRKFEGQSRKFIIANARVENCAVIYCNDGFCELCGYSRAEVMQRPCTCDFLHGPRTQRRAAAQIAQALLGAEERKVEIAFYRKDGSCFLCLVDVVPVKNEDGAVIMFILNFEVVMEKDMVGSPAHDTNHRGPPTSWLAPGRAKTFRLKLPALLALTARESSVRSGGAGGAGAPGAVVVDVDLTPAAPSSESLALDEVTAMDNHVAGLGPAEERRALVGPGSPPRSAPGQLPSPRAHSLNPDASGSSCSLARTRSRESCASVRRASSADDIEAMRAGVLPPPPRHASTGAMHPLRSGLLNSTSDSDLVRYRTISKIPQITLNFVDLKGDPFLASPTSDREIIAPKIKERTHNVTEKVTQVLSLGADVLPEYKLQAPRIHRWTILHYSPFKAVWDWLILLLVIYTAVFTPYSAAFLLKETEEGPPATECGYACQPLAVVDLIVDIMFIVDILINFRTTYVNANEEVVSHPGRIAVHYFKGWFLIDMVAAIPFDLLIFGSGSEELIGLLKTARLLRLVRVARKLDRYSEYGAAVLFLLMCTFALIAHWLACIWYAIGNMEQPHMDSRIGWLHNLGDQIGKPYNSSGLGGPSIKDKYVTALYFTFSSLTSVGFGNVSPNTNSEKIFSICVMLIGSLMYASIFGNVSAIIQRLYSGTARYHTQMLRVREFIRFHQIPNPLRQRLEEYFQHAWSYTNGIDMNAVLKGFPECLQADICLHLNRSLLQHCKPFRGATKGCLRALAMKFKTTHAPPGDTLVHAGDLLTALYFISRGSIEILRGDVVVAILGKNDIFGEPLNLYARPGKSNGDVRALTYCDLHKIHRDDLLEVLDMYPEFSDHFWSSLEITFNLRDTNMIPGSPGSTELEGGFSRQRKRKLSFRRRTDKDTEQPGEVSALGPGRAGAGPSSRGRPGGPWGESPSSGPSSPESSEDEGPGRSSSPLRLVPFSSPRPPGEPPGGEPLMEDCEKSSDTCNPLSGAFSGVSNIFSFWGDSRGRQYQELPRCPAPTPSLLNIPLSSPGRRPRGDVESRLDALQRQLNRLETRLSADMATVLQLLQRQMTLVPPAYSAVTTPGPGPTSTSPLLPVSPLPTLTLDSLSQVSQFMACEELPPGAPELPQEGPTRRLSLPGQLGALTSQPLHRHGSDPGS
compound,measurement,value
"Cc1ncccc1-n1c(=O)c2ncn(C)c2c2ccc(C(F)(F)F)nc21 (atropisomer, axis not shown) [Compound 20, 1-methyl-5-(2-methylpyridin-3-yl)-7-(trifluoromethyl)-1,5-dihydro-4H-imidazo[4,5-c][1,8]naphthyridin-4-one]",IC50,> 30 nM
"Cn1cnc2c(=O)n(-c3cccnc3C3CC3)c3cc(Cl)ccc3c21 (single isomer, unassigned) [Compound 49-P2, 7-chloro-5-(2-cyclopropylpyridin-3-yl)-1-methyl-1,5-dihydro-4H-imidazo[4,5-c]quinolin-4-one]",IC50,> 30 nM
"Cc1ncccc1-n1c(=O)c2ncoc2c2ccc(C(F)(F)F)nc21 [Compound 40, 5-(2-methylpyridin-3-yl)-7-(trifluoromethyl)oxazolo[4,5-c][1,8]naphthyridin-4(5H)-one]",IC50,> 30 nM
"Cn1cnc2c(=O)n(-c3cccnc3C3CC3)c3cc(C(F)(F)F)ccc3c21 (single isomer, unassigned) [Compound 48-P2, 5-(2-cyclopropylpyridin-3-yl)-1-methyl-7-(trifluoromethyl)-1,5-dihydro-4H-imidazo[4,5-c]quinolin-4-one]",IC50,> 30 nM
"Cn1cnc2c(=O)n(-c3cccc(F)c3Cl)c3cc(Cl)ccc3c21 [Compound 39, 7-chloro-5-(2-chloro-3-fluorophenyl)-1-methyl-1,5-dihydro-4H-imidazo[4,5-c]quinolin-4-one]",IC50,> 30 nM
"Cn1cnc2c(=O)n(-c3cccc(F)c3Cl)c3nc(C(F)(F)F)ccc3c21 (atropisomer, axis not shown) [Compound 25, 5-(2-chloro-3-fluorophenyl)-1-methyl-7-(trifluoromethyl)-1,5-dihydro-4H-imidazo[4,5-c][1,8]naphthyridin-4-one]",IC50,> 30 nM
"Cn1cnc2c(=O)n(-c3cccc(F)c3Cl)c3nc(C(F)(F)F)ccc3c21 (single isomer, unassigned) [Compound 25-P2, 5-(2-chloro-3-fluorophenyl)-1-methyl-7-(trifluoromethyl)-1,5-dihydro-4H-imidazo[4,5-c][1,8]naphthyridin-4-one]",IC50,> 30 nM
"O=c1c2ncoc2c2ccc(C(F)(F)F)nc2n1-c1cccnc1C1CC1 (single isomer, unassigned) [Compound 81-P2, 5-(2-cyclopropylpyridin-3-yl)-7-(trifluoromethyl)oxazolo[4,5-c][1,8]naphthyridin-4(5H)-one]",IC50,> 30 nM
"Cn1cnc2c(=O)n(-c3cccnc3C3CC3)c3nc(C(F)(F)F)ccc3c21 (single isomer, unassigned) [Compound 42-P2, 5-(2-cyclopropylpyridin-3-yl)-1-methyl-7-(trifluoromethyl)-1,5-dihydro-4H-imidazo[4,5-c][1,8]naphthyridin-4-one]",IC50,> 30 nM
"Cn1cnc2c(=O)n(-c3cccnc3C(F)(F)F)c3nc(C(F)(F)F)ccc3c21 (single isomer, unassigned) [Compound 41-P2, 1-methyl-7-(trifluoromethyl)-5-(2-(trifluoromethyl)pyridin-3-yl)-1,5-dihydro-4H-imidazo[4,5-c][1,8]naphthyridin-4-one]",IC50,> 30 nM
"Cc1ncccc1-n1c(=O)c2ncn(C)c2c2ccc(C(F)(F)F)cc21 [Compound 45, 1-methyl-5-(2-methylpyridin-3-yl)-7-(trifluoromethyl)-1,5-dihydro-4H-imidazo[4,5-c]quinolin-4-one]",IC50,> 30 nM
